Assay in all cases: NCI tumour cell line growth inhibition, 48 h
Assay [1] has as its system A498 renal.
Assay [2] deals with OVCAR-4 ovarian.
Assay [3] deals with RXF 393 renal.
Assay [4] concerns ACHN renal.
Assay [5] has as its system 786-0 renal.
The test system of assay [6] is M14 melanoma.
Assay [7] has as its system MOLT-4 leukemia.
In assay [8] the test system is HL-60(TB) leukemia.
The subject of assay [9] is NCI-H23 lung.
The subject of assay [10] is SK-OV-3 ovarian.

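48-hour exposure; five concentrations; linearly interpolated endpoints. GI50 marks 50% less growth. TGI: total growth inhibition.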

Regarding `C/C=C(\C)C(=O)O[C@H]1C=CC(=O)O[C@H]1COC(=O)[C@H](C)O`, the GI50 in assay [1] was 15.7 µM; in assay [2] it was 5.97 µM; in assay [4], 4.38 µM; in assay [5] it was 6.59 µM; in assay [6] it was 7.51 µM; in assay [7] it was 1.95 µM. Besides, the figures for the GI50 in [8], in assay [9] and in assay [10] were 2.34 µM, 15.3 µM and 17.6 µM, respectively. Besides, the TGI stood at 31.4 µM in assay [1]; 21.5 µM in assay [2]; 7.41 µM in assay [3]; 16.6 µM in assay [4]; 20.9 µM in assay [5]; 23.1 µM in assay [6]. Further, the TGI was determined as 5.22 µM in [7], 6.9 µM in assay [8], 36.9 µM in assay [9] and 46.4 µM in assay [10].

As to `[Cu+2].[NH-]C(CC(=O)O)C(=O)O.[NH-]C(CC(=O)O)C(=O)O` (centres undefined), the GI50 in assay [1] is 36.7 µM; in [2], 99.2 µM; in [3], over 100 µM; in [4] it was over 100 µM; in assay [5] it was over 100 µM; in assay [6], over 100 µM. In addition, the GI50 in [7], in [8], in [9] and in [10] was over 100 µM throughout. Besides, the TGI in assay [1], in assay [2], in assay [3], in [4], in assay [5] and in assay [6] was over 100 µM each time. The TGI in [7], in [8], in assay [9] and in [10] was over 100 µM in each case.

`O=[N+]([O-])c1oc2ccc3ccccc3c2c1CCO`: the TGI in assay [1] was 0.72 µM; in assay [2], 17.3 µM; in assay [3] it was 3.71 µM; in [4], 3.68 µM; in assay [5], over 50 µM; in [6], 5.24 µM. For the same compound, the TGI was over 100 µM in assay [7], 13 µM in assay [8], 17 µM in [9] and 5.1 µM in assay [10].

Turning to `O=S(=O)(NCCCNc1cc(-c2cn(-c3ccccc3)nc2-c2cccc(O)c2)ccn1)c1ccc(Br)cc1`, the GI50 in assay [1] is 0.386 µM; in [2], 1.86 µM; in assay [3], 1.09 µM; in assay [4], 2.97 µM; in assay [5], 1.5 µM; in assay [6], 1.78 µM. The GI50 in assay [7] was 1.13 µM; in assay [8], 1.79 µM; in assay [9], 2.19 µM; in assay [10], 2.76 µM. Moreover, the TGI stood at 2.89 µM in assay [1]; 8.65 µM in assay [2]; 3.5 µM in [3]; 15.4 µM in assay [4]; 4.29 µM in [5]; 3.78 µM in assay [6]. The TGI in [7] was found to be 3.73 µM; in [8], 4.92 µM; in assay [9], 12.1 µM; in assay [10], 9.3 µM.

`CC(C)Cc1ccc(C(C)C(=O)NCc2ccc(Cn3c(=O)sn(CCCI)c3=O)cc2)cc1` (centres undefined): the GI50 is 1.43 µM in [1]; 0.736 µM in [2]; 0.326 µM in assay [3]; 0.233 µM in assay [4]; 0.475 µM in [5]; 0.429 µM in assay [6]. Further, the GI50 in assay [7] is 0.511 µM; in [8] it was 0.775 µM; in [9], 1.32 µM; in [10], 2.88 µM. The TGI was 2.75 µM in [1]; 2.12 µM in [2]; 1.33 µM in [3]; 0.633 µM in assay [4]; 0.998 µM in [5]; 1.34 µM in [6]. Moreover, the TGI in [7] was over 28.3 µM; in [8], over 22.7 µM; in assay [9], 2.79 µM; in assay [10], 8.23 µM.

Turning to `Cc1ccccc1C(C(=O)NC1CCCCC1)N(C(=O)CNc1ncccc1F)c1cccc(F)c1` (centres undefined), the GI50 in assay [1] was 49.6 µM; in assay [2], over 23.6 µM; in assay [3] it was 4.72 µM; in [4] it was 49.8 µM; in assay [5], 32.8 µM; in assay [6], over 100 µM. For the same compound, the GI50 is over 100 µM in [7], over 100 µM in assay [8], over 57.8 µM in assay [9] and 20.8 µM in [10]. Also, the TGI in [1] is over 100 µM; in [2], over 100 µM; in assay [3] it was 20.1 µM; in assay [4], over 100 µM; in assay [5], over 100 µM; in [6], over 100 µM. In addition, the TGI in assay [7] is over 100 µM; in assay [8], over 100 µM; in [9], over 100 µM; in assay [10], over 61 µM.

On to `Cc1sc2c(c1C)C(c1ccc(Cl)cc1)=N[C@@H](CC(=O)NCCCN1CCN(C)CC1)c1nnc(C)n1-2`, for which the GI50 was 0.271 µM in [1]; 0.748 µM in [2]; 2.08 µM in [3]; 17.1 µM in assay [4]; 5.48 µM in [5]; 1.24 µM in assay [6]. Also, the GI50 is 22.2 µM in [7], 0.0583 µM in [8], 5.67 µM in [9] and 0.309 µM in [10]. The TGI is 7.78 µM in assay [1]; over 100 µM in [2]; over 100 µM in assay [3]; over 100 µM in assay [4]; over 100 µM in assay [5]; over 100 µM in [6]. For the same compound, the TGI in [7] is over 100 µM; in [8], 5.7 µM; in [9], over 100 µM; in assay [10], over 42.3 µM.

With `CN(C)Cc1c(C(=O)NCCOc2ccc(C(=O)NO)cc2)oc2ccccc12`, the GI50 in [1] was 0.126 µM; in [2] it was 0.269 µM; in [3], 0.197 µM; in [4], 0.264 µM; in [5], 0.405 µM; in assay [6], 0.223 µM. Moreover, the GI50 was 0.114 µM in assay [7], 0.303 µM in assay [8], 0.267 µM in [9] and 0.273 µM in assay [10]. Moreover, the TGI in [1] is 0.411 µM; in assay [2] it was over 71.3 µM; in assay [3] it was 0.643 µM; in assay [4], 1.15 µM; in assay [5], 9.16 µM; in [6], 1.68 µM. The TGI was found to be 1.53 µM in [7], 2.19 µM in assay [8], 2.06 µM in [9] and 2.01 µM in [10].

On to `Cc1cccc(Cl)c1NC(=O)c1cnc(Nc2cc(N3CCOCC3)cc(S(C)(=O)=O)c2)s1`, for which the GI50 in assay [1] is 0.254 µM; in assay [2], over 10 µM; in [3], 0.103 µM; in assay [4], 0.364 µM; in [5], 0.171 µM; in [6], 4.01 µM. For the same compound, the GI50 in assay [7] was 5.71 µM; in assay [8] it was 9.76 µM; in assay [9], over 10 µM; in assay [10] it was 0.191 µM. Further, the TGI in assay [1] is 2.39 µM; in assay [2], over 10 µM; in assay [3], 0.994 µM; in assay [4], over 7.11 µM; in [5], over 5.31 µM; in [6], over 10 µM. Also, the TGI is over 10 µM in [7], over 10 µM in [8], over 10 µM in assay [9] and over 8.3 µM in [10].

For the compound `CC1(C)CCC(C)(C)c2cc(NC(=O)c3ccc(C(=O)O)cc3)ccc21`, the TGI is 85.1 µM in [1]; over 100 µM in assay [2]; over 79.9 µM in assay [3]; over 100 µM in assay [4]; over 85.4 µM in [5]; over 65.1 µM in assay [6]. Further, the TGI in assay [7] was over 100 µM; in assay [8], over 100 µM; in [9] it was 53.9 µM; in assay [10], over 100 µM.

Take `C=CCOC(=O)Nc1cccn([C@H](CC(C)C)C(=O)NCCC(C)C)c1=O`: the GI50 in [1] was 17.2 µM; in [2], 28.1 µM; in [3] it was over 100 µM; in [4], over 100 µM; in [5], over 100 µM; in assay [6] it was over 100 µM. Also, the GI50 in assay [7] was 61.9 µM; in [8] it was 58.9 µM; in assay [9] it was 57.2 µM; in [10] it was over 100 µM. Also, the TGI in assay [1], in assay [2], in assay [3], in [4], in [5] and in assay [6] was over 100 µM each time. Also, the TGI in [7], in assay [8], in [9] and in assay [10] was over 100 µM each time.

Consider `Nc1nn(C(=O)Nc2c(F)cccc2F)c2ccccc12`, for which the GI50 is 31.4 µM in assay [1]; 57.8 µM in assay [2]; 20.2 µM in assay [3]; 50.1 µM in assay [4]; over 100 µM in assay [5]; 74.6 µM in assay [6]. Also, the GI50 is 32.7 µM in assay [7], 33.2 µM in assay [8], 95.6 µM in assay [9] and over 100 µM in [10]. In addition, the TGI in assay [1], in [2], in assay [3], in assay [4], in assay [5] and in assay [6] was over 100 µM in each case. Further, the TGI in assay [7], in assay [8], in assay [9] and in [10] was over 100 µM throughout.

The record behind these values is PubChem BioAssay (NCI).
